Biological target: STAT3 (Homo sapiens, UniProt P40763)
Experiment: SPR
Type: binding

Chain of STAT3 (P40763 2-770): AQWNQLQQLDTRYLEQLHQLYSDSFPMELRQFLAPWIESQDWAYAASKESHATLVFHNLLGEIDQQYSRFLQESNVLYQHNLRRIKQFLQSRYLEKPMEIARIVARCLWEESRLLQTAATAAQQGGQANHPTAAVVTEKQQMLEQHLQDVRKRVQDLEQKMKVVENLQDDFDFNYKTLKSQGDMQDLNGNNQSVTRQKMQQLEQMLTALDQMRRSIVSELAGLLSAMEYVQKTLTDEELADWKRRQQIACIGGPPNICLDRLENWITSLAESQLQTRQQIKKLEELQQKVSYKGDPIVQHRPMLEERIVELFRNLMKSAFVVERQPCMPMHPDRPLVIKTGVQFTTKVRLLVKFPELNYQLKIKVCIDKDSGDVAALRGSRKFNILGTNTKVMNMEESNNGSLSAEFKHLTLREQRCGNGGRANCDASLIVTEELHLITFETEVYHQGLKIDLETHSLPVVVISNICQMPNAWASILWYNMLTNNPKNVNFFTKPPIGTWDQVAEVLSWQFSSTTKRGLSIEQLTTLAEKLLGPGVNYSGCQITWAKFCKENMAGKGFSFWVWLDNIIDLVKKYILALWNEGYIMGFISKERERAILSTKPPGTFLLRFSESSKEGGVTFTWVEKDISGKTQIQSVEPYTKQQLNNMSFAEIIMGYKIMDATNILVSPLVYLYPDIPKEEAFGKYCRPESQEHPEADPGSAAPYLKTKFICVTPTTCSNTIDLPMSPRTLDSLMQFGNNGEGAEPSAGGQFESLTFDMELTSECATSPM

Fc1ccc(-n2cc(CCCCN3CCC4(CC3)OCc3ccccc34)c3ccccc32)cc1 [Siramesine]
Kd: 871 µM
